Usually IC50 stands for the point on the concentration scale where inhibition reaches its midpoint.

One assay deals with T1, mouse TRPM3a2 (mTRPM3) ion channel (Mus musculus, UniProt J9SQF3).
T1 construct: expressed in transfected cells; host or cells: flip-in HEK293
T1 sequence (J9SQF3 1-1709 isoform J9SQF3-12): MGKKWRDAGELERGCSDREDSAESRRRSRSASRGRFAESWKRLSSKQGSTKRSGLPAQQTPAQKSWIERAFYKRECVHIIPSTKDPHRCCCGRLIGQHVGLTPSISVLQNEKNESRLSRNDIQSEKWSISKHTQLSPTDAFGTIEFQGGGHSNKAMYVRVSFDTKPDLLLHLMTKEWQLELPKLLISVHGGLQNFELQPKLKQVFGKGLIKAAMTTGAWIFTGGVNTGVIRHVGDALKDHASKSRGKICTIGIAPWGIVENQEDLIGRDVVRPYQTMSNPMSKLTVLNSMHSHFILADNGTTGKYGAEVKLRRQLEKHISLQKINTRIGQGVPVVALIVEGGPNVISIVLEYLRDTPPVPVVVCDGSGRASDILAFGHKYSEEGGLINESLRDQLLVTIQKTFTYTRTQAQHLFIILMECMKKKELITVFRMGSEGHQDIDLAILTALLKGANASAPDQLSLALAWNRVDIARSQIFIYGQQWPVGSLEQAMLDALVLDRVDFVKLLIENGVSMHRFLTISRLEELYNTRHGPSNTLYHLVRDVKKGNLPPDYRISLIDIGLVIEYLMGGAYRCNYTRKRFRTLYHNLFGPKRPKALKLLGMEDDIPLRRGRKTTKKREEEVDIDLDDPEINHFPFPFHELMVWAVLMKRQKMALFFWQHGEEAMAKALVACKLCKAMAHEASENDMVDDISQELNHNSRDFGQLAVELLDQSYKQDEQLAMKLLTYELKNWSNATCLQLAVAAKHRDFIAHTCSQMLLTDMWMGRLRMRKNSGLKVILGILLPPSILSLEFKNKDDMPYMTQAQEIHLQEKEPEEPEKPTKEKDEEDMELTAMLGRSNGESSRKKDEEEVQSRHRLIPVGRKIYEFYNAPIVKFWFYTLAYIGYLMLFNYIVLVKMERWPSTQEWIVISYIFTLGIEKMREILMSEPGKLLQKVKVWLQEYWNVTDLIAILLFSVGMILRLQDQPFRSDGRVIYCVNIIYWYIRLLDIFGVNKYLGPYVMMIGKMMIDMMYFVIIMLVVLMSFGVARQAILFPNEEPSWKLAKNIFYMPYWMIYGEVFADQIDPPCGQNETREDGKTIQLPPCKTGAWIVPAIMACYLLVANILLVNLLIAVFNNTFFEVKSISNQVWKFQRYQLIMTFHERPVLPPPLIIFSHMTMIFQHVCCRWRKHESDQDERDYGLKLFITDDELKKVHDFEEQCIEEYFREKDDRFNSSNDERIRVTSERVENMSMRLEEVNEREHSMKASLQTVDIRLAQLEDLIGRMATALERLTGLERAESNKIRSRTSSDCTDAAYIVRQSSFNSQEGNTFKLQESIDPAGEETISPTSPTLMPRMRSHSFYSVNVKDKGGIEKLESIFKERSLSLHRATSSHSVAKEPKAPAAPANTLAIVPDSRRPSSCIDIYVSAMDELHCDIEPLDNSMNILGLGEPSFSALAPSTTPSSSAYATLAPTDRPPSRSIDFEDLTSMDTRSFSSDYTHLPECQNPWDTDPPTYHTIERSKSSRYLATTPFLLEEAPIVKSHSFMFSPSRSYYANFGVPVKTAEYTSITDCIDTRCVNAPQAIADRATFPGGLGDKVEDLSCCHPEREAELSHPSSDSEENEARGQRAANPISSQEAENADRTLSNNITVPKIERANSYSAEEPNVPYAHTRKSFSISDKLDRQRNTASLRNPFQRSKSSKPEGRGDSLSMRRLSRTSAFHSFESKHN
The assay can be described thus: TRPM3 ion channel driven Ca2+ uptake, Fluo-4 AM assay (PS-stimulated, overexpressing flip-in HEK293 cells). Conditions: PS (50 μM) stimulated, cpds. 500-599. The assay is classed as cell-based. The procedure: In order to monitor the inhibition of the mouse TRPM3a2 (mTRPM3) ion channel by the compounds of the invention, a cellular system making use of an mTRPM3alpha2 or hTRPM3 overexpressing cell line (flip-in HEK293) was used. The TRPM3 channel was stimulated/opened with Pregnenolone sulfate (PS) (50 μM) which results in Ca^2+ influx.
For mTRPM3, the intracellular Ca^2+ was measured with a Calcium responsive dye, Fluor-4 AM ester (Invitrogen). Cells were cultured until a confluence of 80-90%, washed with Versene (Invitrogen) and detached from the surface by a short incubation with 0.05% Trypsin (Invitrogen). The trypsination process was stopped by the addition of complete cell culture medium (DMEM, glutamax, 10% FCS, NEAA, Pen-Strep). Cells were collected and resuspended in Krebs buffer without Calcium at RT.
Prior the cell seeding (±2000 cells/well into a black, 384 well plate (Greiner)) the diluted compound was added in the assay plate, together with the PS dissolved in Krebs buffer containing Calcium. […] Directly after cell addition the plates were read on an Envision fluorescence reader (Perkin Elmer) by an Excitation of 485 nm and emission at 535 nm.
Channel inhibition was calculated compared to a non-PS stimulated control versus a condition stimulated with PS (50 μM) with vehicle. The ability of the compounds of the invention to inhibit this activity was determined as: Percentage inhibition=[1-((RFU determined for sample with test compound present—RFU determined for sample with positive control inhibitor) divided by (RFU determined in the presence of vehicle—RFU determined for sample with positive control inhibitor))]*100.
In turn, `Cc1ncccc1COc1ccc2oc(C)c(C(=O)NC3(CO)CCCNC3=O)c2c1` (single isomer, unassigned) [512 - En 1] showed an IC50 of at most 1 µM. Still for that read-out and setting: as for `Cc1ncsc1COc1ccc2oc(C)c(C(=O)NC3(CO)CCCNC3=O)c2c1` (single isomer, unassigned) [513 - En 1], the figure is at most 1 µM; as for `Cc1ccc(COc2ccc3oc(C)c(C(=O)NC4(CO)CCCNC4=O)c3c2)cn1` (single isomer, unassigned) [514 - En 1], at most 1 µM.

Take `Cc1ncccc1COc1ccc2oc(C)c(C(=O)NC3(CO)CCNC3=O)c2c1` (single isomer, unassigned) [516 - En 1]: the IC50 was at most 1 µM. The same measure, in the same setting: as for `Cc1ncsc1COc1ccc2oc(C)c(C(=O)NC3(CO)CCNC3=O)c2c1` (single isomer, unassigned) [518 - En 1], the figure is at most 1 µM; as for `Cc1ccc(COc2ccc3oc(C)c(C(=O)NC4(CO)CCNC4=O)c3c2)cn1` (single isomer, unassigned) [519 - En 1], at most 1 µM; as for `Cc1oc2ccc(OCc3ccccn3)cc2c1C(=O)NC1(CO)CCNC1=O` (single isomer, unassigned) [520 - En 1], at most 1 µM. Same read-out and setting: as for `Cc1oc2ccc(OCc3ccccn3)cc2c1C(=O)NC1(CO)CCNC1=O` (single isomer, unassigned) [520 - En 2], the figure is at most 1 µM. Same read-out and setting: in the case of `Cc1oc2ccc(OCc3cccnc3O)cc2c1C(=O)NC1(CO)CCNC1=O` (single isomer, unassigned) [521 - En 1] it was at most 1 µM; in that of `Cc1oc2ccc(OCc3cccnc3O)cc2c1C(=O)NC1(CO)CCNC1=O` (single isomer, unassigned) [521 - En 2], 1 to 20 µM; in that of `COc1ncccc1COc1ccc2oc(C)c(C(=O)NC3(CO)CCNC3=O)c2c1` (single isomer, unassigned) [522 - En 1], at most 1 µM. Compound `Cc1oc2ccc(OCc3cccn(C)c3=O)cc2c1C(=O)NC1CCNCC1(F)F` (single isomer, unassigned) [544 - En 1] had an IC50 of 1 to 20 µM.

In turn, `Cc1oc2ccc(OCc3cccc(O)n3)cc2c1C(=O)NC1CCNCC1(F)F` (single isomer, unassigned) [569 - En 1, N-(3,3-difluoropiperidin-4-yl)-2-methyl-5-((6-oxo-1,6-dihydropyridin-2-yl)methoxy)benzofuran-3-carboxamide] showed an IC50 of 1 to 20 µM.

For the compound `Cc1oc2ccc(OCc3cccc(O)n3)cc2c1C(=O)NC1CCNCC1(F)F` (single isomer, unassigned) [569 - En 2, N-(3,3-difluoropiperidin-4-yl)-2-methyl-5-((6-oxo-1,6-dihydropyridin-2-yl)methoxy)benzofuran-3-carboxamide], the IC50 was at least 20 µM. The compound `Cc1ncc(COc2ccc3oc(C)c(C(=O)NC4(C(N)=O)CCCOC4)c3c2)s1` (single isomer, unassigned) [590 - En 1] gave an IC50 of at most 1 µM. In the case of `Cc1ncccc1COc1ccc2oc(C)c(C(=O)NC3(C(N)=O)CCOC3)c2c1` (single isomer, unassigned) [591 - En 1], the IC50 is at most 1 µM. For `Cc1ncccc1COc1ccc2oc(C)c(C(=O)NC3(C(N)=O)CCOC3)c2c1` (single isomer, unassigned) [591 - En 2], the IC50 is at most 1 µM. Same read-out and setting: in the case of `Cc1ncc(COc2ccc3oc(C)c(C(=O)NC4(C(N)=O)CCOC4)c3c2)s1` (single isomer, unassigned) [592 - En 1] it was at most 1 µM; in that of `Cc1ncsc1COc1ccc2oc(C)c(C(=O)NC3(C(N)=O)CCOC3)c2c1` (single isomer, unassigned) [593 - En 1], at most 1 µM. For `Cc1ccc(COc2ccc3oc(C)c(C(=O)NC4(C(N)=O)CCOC4)c3c2)cn1` (single isomer, unassigned) [594 - En 1], the IC50 was at most 1 µM. On the same count and under the same terms, as for `Cc1ccc(COc2ccc3oc(C)c(C(=O)NC4(C(N)=O)CCOC4)c3c2)cn1` (single isomer, unassigned) [594 - En 2], the figure is at most 1 µM; as for `Cc1oc2ccc(OCc3ccccn3)cc2c1C(=O)NC1(C(N)=O)CCOC1` (single isomer, unassigned) [595 - En 1], at most 1 µM. On the same count and under the same terms, as for `COc1ncccc1COc1ccc2oc(C)c(C(=O)NC3(C(N)=O)CCOC3)c2c1` (single isomer, unassigned) [597 - En 1], the figure is at most 1 µM; as for `Cc1oc2ccc(OCc3c(F)cnn3C)cc2c1C(=O)NC1(C(N)=O)CCOC1` (single isomer, unassigned) [598 - En 1], at most 1 µM.

The assay is the same for the next values; noted with them: PS (50 μM) stimulated, cpds. 600-666.
Consider `CNC(=O)C(CO)NC(=O)c1c(C)oc2ccc(OCc3scnc3C)cc12` (single isomer, unassigned) [600 - En 1], for which the IC50 is at most 1 µM. Still for that read-out and setting: as for `CNC(=O)C(CO)NC(=O)c1c(C)oc2ccc(OCc3ccccn3)cc12` (single isomer, unassigned) [601 - En 1], the figure is at most 1 µM; as for `CNC(=O)C(CO)NC(=O)c1c(C)oc2ccc(OCc3ccccn3)cc12` (single isomer, unassigned) [601 - En 2], at most 1 µM; as for `Cc1oc2ccc(OCc3cccnc3O)cc2c1C(=O)NC1CNCC1(F)F` (single isomer, unassigned) [640 - En 1], at most 1 µM. Same read-out and setting: in the case of `Cc1oc2ccc(OCc3ccnn3C)cc2c1C(=O)NC1COCC1O` (single isomer, unassigned) [655 - En 1] it was at most 1 µM; in that of `Cc1oc2ccc(OCc3ccnn3C)cc2c1C(=O)NC1COCC1O` (single isomer, unassigned) [655 - En 2], at most 1 µM. Still for that read-out and setting: as for `Cc1oc2ccc(OCc3ccnn3C)cc2c1C(=O)NC1COCC1O` (single isomer, unassigned) [656 - En 1], the figure is 1 to 20 µM; as for `Cc1oc2ccc(OCc3ccnn3C)cc2c1C(=O)NC1COCC1O` (single isomer, unassigned) [656 - En 2], 1 to 20 µM.

For the compound `NC(=O)c1oc2ccc(OCc3cccnc3C(F)(F)F)cc2c1C(=O)NC1CCNCC1(F)F` (single isomer, unassigned) [657 - En 1, N3-(3,3-difluoropiperidin-4-yl)-5-((2-(trifluoromethyl)pyridin-3-yl)methoxy)benzofuran-2,3-dicarboxamide], the IC50 is at least 20 µM.

The same assay, now with this note: PS (50 μM) stimulated, cpds. 667-751.
With `Cc1oc2ccc(OCc3ccccn3)cc2c1C(=O)NC1(CO)CCCNC1=O` (single isomer, unassigned) [719 - En 1], the IC50 was at most 1 µM. As to `COc1ncccc1COc1ccc2oc(C)c(C(=O)NC(C)(CO)C(N)=O)c2c1` (single isomer, unassigned) [720 - En 1], the IC50 was at most 1 µM. On the same count and under the same terms, as for `Cc1ncc(COc2ccc3oc(C)c(C(=O)NC4(C(N)=O)CCOC4)c3c2)o1` (single isomer, unassigned) [725 - En 1], the figure is at most 1 µM; as for `Cc1ncsc1COc1ccc2oc(C)c(C(=O)NC3(CO)CCNC3)c2c1` (single isomer, unassigned) [728 - En 1], 1 to 20 µM; as for `Cc1ncsc1COc1ccc2oc(C)c(C(=O)NC3(CO)CCNC3)c2c1` (single isomer, unassigned) [728 - En 2], at most 1 µM.

Compound `Cc1ncsc1COc1ccc2oc(C)c(C(=O)NC(Cn3cncn3)C(N)=O)c2c1` (single isomer, unassigned) [729 - En 1] yielded an IC50 of at most 1 µM. Same read-out and setting: as for `Cc1ncsc1COc1ccc2oc(C)c(C(=O)NC(Cn3cncn3)C(N)=O)c2c1` (single isomer, unassigned) [729 - En 2], the figure is at most 1 µM; as for `Cc1oc2ccc(OCc3c[nH]nc3C(F)(F)F)cc2c1C(=O)NC1(CO)CCCNC1=O` (single isomer, unassigned) [731 - En 1], at most 1 µM; as for `Cc1oc2ccc(OCc3ccnn3C)cc2c1C(=O)NC1(CO)CCCNC1=O` (single isomer, unassigned) [732 - En 1], at most 1 µM.

`Cc1oc2ccc(OCc3ccnn3C)cc2c1C(=O)NC1(CO)CCNC1=O` (single isomer, unassigned) [733 - En 1] showed an IC50 of at most 1 µM. Still for that read-out and setting: as for `Cc1oc2ccc(OCc3cccnn3)cc2c1C(=O)NC1(CO)CCNC1=O` (single isomer, unassigned) [734 - En 1], the figure is at most 1 µM. The same measure, in the same setting: as for `Cc1oc2ccc(OCc3cccnn3)cc2c1C(=O)NC1(CO)CCNC1=O` (single isomer, unassigned) [734 - En 2], the figure is 1 to 20 µM; as for `Cc1oc2ccc(OCc3ccc(F)cn3)cc2c1C(=O)NC1(CO)CCNC1=O` (single isomer, unassigned) [735 - En 1], at most 1 µM; as for `Cc1oc2ccc(OCc3cccnc3C(F)F)cc2c1C(=O)NC1(CO)CCNC1=O` (single isomer, unassigned) [736 - En 1], at most 1 µM. The same measure, in the same setting: in the case of `Cc1oc2ccc(OCc3cccnc3C(F)F)cc2c1C(=O)NC1(CO)CCCNC1=O` (single isomer, unassigned) [737 - En 1] it was at most 1 µM; in that of `Cc1oc2ccc(OCc3ccnn3CC(F)F)cc2c1C(=O)NC1(C(N)=O)CCOC1` (single isomer, unassigned) [740 - En 1], at most 1 µM; in that of `Cc1oc2ccc(OCc3ccnn3CC(F)F)cc2c1C(=O)NC1(C(N)=O)CCOC1` (single isomer, unassigned) [740 - En 2], at most 1 µM.

These data come from patent US20240336602A1 (Katholieke Universiteit Leuven, priority 2020, published 2024).
